Measured values published in ChEMBL document CHEMBL4354830, “Discovery of Benzo[cd]indol-2(1H)-ones and Pyrrolo[4,3,2-de]quinolin-2(1H)-ones as Bromodomain and Extra-Terminal Domain (BET) Inhibitors with Selectivity for the First Bromodomain with Potential High Efficiency against Acute Gouty Arthritis” (J Med Chem, 2019).

Legend:
[1] = biological target: Chromatin remodeling regulator CECR2 (Homo sapiens) (UniProt Q9BXF3); assay: Binding affinity to CECR2 (unknown origin) assessed as change in melting temperature at 10 uM by SYPRO Orange based differential scanning fluorimetry
[2] = biological target: T1, Bromodomain-containing protein 4 (Homo sapiens, UniProt O60885); assay: Binding affinity to recombinant human N-terminal His-tagged BRD4 BD1 (44 to 170 residues) expressed in Escherichia coli assessed as change in melting temperature at 10 uM by SYPRO Orange based differential scanning fluorimetry
[3] = biological target: CREB-binding protein (Homo sapiens) (UniProt Q92793); assay: Binding affinity to CREBBP (unknown origin) assessed as change in melting temperature at 10 uM by SYPRO Orange based differential scanning fluorimetry
[4] = biological target: T2, Bromodomain-containing protein 9 (Homo sapiens) (UniProt Q9H8M2); assay: Binding affinity to BRD9 BD1 (unknown origin) assessed as change in melting temperature at 10 uM by SYPRO Orange based differential scanning fluorimetry
T2 sequence (whole entry): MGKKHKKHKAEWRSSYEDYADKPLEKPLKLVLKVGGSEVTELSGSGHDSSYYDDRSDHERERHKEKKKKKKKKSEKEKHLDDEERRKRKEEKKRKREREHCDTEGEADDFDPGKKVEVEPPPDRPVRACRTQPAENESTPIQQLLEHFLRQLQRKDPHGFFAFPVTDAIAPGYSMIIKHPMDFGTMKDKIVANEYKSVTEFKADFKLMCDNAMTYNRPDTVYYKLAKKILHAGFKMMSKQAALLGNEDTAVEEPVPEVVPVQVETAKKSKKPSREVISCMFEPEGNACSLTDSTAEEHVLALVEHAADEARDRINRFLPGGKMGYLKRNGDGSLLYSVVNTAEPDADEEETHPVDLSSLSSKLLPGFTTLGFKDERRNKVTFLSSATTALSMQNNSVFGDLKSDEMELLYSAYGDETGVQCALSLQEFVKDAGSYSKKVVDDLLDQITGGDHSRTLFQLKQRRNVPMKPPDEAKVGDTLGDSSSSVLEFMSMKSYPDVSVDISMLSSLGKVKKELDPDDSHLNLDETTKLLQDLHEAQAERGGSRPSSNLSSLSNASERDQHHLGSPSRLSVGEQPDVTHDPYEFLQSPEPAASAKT

[5] = biological target: T1, Bromodomain-containing protein 4; assay: Displacement of tetra-acetylated histone H4 peptide (1-21) from recombinant human N-terminal His-tagged BRD4 BD1 (44 to 170 residues) expressed in Escherichia coli incubated for 30 mins followed by further incubation with tetra-acetylated histone H4 peptide (1-21) for 30 mins by Alphascreen assay
[6] = biological target: T1, Bromodomain-containing protein 4; assay: Displacement of tetra-acetylated histone H4 peptide (1-21) from recombinant human N-terminal His-tagged BRD4 BD2 (349 to 460 residues) expressed in Escherichia coli incubated for 30 mins followed by further incubation with tetra-acetylated histone H4 peptide (1-21) for 30 mins by Alphascreen assay
[7] = Permeability of compound at 10 uM by PAMPA assay; type: ADME; conditions: read-out: permeability
[8] = tested on: RAW264.7; assay: Inhibition of LPS-induced NO overproduction in mouse RAW264.7 cells at 1 uM incubated for 2 hrs followed by LPS stimulation and measured after 22 hrs by Griess reagent based assay relative to control; type: functional; conditions: Mus musculus, RAW264.7

Chain of Chromatin remodeling regulator CECR2 (Homo sapiens) (Q9BXF3 whole entry, looked up, the tested form may be a part): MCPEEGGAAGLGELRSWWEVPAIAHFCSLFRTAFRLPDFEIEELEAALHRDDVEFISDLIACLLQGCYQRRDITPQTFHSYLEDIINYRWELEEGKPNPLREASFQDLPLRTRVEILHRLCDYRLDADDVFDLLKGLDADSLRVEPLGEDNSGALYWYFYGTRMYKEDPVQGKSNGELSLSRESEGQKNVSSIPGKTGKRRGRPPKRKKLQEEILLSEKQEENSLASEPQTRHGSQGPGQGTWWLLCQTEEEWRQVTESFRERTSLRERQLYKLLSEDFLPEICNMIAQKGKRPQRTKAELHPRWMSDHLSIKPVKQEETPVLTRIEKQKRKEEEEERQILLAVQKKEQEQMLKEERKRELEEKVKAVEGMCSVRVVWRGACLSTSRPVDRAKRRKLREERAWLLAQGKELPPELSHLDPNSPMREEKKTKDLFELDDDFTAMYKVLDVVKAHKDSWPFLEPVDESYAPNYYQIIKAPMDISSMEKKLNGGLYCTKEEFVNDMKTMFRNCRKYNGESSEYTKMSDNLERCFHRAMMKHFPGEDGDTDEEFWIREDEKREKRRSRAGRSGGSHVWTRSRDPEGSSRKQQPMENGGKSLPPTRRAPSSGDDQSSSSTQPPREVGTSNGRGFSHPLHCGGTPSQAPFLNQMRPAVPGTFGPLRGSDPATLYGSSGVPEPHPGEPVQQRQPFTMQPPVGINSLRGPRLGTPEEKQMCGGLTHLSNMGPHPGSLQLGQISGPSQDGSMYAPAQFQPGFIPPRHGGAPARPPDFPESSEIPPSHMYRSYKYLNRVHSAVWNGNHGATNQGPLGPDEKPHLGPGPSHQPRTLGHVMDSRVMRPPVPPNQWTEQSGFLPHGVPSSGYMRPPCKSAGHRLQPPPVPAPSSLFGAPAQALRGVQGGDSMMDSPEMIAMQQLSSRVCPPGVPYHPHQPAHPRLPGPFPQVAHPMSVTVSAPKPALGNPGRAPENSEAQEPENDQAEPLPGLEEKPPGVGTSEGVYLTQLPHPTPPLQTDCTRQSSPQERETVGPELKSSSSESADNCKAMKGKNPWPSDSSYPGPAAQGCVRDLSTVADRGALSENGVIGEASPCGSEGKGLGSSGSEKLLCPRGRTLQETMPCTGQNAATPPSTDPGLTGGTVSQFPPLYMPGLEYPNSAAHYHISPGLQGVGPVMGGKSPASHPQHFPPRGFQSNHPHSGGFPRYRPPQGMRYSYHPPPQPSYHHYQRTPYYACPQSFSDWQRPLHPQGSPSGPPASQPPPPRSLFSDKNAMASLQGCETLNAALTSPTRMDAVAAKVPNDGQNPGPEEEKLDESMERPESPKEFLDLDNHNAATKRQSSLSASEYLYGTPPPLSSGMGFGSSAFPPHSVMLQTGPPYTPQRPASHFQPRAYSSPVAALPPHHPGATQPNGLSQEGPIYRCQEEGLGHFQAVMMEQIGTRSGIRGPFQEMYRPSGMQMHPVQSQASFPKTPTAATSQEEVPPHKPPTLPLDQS
Chain of CREB-binding protein (Homo sapiens) (Q92793 2-2442 limits assumed): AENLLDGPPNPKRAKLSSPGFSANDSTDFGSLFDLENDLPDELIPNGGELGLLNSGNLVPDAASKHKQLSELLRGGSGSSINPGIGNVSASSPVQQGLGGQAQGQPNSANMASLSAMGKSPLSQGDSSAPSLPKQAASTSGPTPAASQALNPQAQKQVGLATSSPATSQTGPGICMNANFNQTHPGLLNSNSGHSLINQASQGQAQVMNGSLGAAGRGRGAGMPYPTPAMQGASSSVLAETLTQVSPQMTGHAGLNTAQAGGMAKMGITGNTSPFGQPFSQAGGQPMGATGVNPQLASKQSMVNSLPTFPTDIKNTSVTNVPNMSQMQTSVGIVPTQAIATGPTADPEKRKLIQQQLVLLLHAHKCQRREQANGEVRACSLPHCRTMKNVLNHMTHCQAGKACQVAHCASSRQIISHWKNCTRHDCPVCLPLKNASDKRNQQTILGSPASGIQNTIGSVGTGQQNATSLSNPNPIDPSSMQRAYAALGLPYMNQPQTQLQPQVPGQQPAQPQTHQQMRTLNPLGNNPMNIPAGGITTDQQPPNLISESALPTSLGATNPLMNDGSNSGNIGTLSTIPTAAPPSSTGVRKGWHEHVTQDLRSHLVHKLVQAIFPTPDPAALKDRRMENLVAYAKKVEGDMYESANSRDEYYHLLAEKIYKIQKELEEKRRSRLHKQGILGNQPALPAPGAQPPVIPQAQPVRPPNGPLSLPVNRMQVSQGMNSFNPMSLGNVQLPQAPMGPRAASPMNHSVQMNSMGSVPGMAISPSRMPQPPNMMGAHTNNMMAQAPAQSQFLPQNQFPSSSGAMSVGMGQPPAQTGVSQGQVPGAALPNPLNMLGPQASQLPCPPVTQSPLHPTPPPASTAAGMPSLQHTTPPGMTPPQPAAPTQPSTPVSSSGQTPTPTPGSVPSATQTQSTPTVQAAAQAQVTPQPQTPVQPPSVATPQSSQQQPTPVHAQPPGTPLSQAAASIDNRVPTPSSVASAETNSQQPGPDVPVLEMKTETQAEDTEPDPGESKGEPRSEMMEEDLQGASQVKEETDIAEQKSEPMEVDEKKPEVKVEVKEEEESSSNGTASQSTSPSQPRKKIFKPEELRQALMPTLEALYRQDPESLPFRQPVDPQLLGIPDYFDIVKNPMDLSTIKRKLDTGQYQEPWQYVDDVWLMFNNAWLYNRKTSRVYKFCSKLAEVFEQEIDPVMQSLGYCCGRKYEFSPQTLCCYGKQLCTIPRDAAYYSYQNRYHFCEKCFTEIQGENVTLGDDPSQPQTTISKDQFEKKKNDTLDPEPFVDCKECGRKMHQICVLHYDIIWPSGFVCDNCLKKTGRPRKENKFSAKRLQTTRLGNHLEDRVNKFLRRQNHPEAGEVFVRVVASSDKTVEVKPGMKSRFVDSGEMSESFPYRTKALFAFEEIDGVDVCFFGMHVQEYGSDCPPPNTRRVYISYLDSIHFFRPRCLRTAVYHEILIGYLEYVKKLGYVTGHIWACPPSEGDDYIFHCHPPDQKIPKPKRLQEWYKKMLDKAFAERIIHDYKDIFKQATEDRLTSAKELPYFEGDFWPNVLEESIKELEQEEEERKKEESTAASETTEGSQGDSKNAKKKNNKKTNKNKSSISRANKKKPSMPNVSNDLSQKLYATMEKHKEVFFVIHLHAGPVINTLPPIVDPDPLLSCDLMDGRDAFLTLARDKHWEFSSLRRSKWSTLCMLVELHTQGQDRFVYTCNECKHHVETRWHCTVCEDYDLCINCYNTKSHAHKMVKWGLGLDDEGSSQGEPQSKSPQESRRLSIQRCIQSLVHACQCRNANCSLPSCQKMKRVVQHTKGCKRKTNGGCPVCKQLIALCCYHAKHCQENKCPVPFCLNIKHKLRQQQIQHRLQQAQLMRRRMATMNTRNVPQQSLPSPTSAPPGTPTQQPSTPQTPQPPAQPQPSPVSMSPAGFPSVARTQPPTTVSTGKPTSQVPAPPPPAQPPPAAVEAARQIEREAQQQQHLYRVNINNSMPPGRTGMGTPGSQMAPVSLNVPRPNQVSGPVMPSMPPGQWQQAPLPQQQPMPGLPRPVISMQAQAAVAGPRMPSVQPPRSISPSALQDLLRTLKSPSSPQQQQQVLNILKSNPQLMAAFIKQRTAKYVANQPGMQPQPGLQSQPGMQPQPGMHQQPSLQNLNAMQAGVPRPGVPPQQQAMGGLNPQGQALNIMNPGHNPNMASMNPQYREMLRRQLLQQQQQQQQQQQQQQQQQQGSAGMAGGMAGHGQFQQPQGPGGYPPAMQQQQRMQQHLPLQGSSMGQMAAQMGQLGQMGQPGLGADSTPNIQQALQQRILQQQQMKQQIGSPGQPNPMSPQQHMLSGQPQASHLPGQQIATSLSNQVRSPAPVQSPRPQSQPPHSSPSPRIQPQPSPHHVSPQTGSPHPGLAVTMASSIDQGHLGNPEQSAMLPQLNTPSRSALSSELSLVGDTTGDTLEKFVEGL

ΔTm [1] [°C]	ΔTm [2] [°C]	ΔTm [3] [°C]	ΔTm [4] [°C]	IC50 [5] [µM]	IC50 [6] [µM]	Papp at 10 µM [7] [×10⁻⁶ cm/s]	Compound	inhibition at 1 µM [8] [%]
-0.03	2.19	0.53	0.47				CN1C(=O)c2cccc3c(S(=O)(=O)Nc4ccccc4)ccc1c23	
-0.31	5.72	1.51	1.93	0.709	2.62		CN1C(=O)c2cccc3c(NS(=O)(=O)c4ccccc4)ccc1c23	

The next lines start with the molecule.

Compound	ΔTm [1] [°C]	ΔTm [2] [°C]	ΔTm [3] [°C]	ΔTm [4] [°C]	IC50 [5] [µM]	IC50 [6] [µM]	Papp at 10 µM [7] [×10⁻⁶ cm/s]	inhibition at 1 µM [8] [%]
CN1C(=O)c2cccc3c(NCc4ccccc4)ccc1c23	1.92	2.7	1.6	-0.9				
CN1C(=O)c2cccc3c(NC(=O)c4ccccc4)ccc1c23	2.17	2.17	0.93	4.1				
CC(Nc1ccc2c3c(cccc13)C(=O)N2C)c1ccccc1 (stereo unspecified)	0.13	3.15	0.55	4.33				
COc1ccccc1S(=O)(=O)Nc1ccc2c3c(cc(-c4ccc(C)o4)cc13)C(=O)N2C					0.0548	47	0.006	58.5
